This is an account of results in patent US9067935B2 (Janssen Pharmaceutica, NV, priority 2010, dated 2015).

pEC50, pIC50: −log10 of the molar value. Values joined by “and” are separate entries in the source; they are usually repeats but may differ in a detail not shown here. Identical values can stand only once.

In general, pIC50 refers to −log10 of the IC50, conventionally taken in molar units. A high value points to a low IC50. In general, % Inhibition refers to the drop in the measured response relative to a control, in per cent. As a reminder, the pEC50 is the negative decadic logarithm of the EC50, by convention in mol/L.

For one test, the target named is canine TRPM8 (Canis lupus familiaris, UniProt Q1A7N1). As to the kind of experiment: In Vitro Canine TRPM8 Functional Assay (intracellular Ca2+ fluorescence, icilin challenge). The format is cell-based. Particulars: HEK293 cells stably expressing canine TRPM8; for pIC50: icilin at ~80% maximal response; for inhibition at 0.2 µM: HEK293, @ 0.2 μM, read-out: % Inh (%) @ 0.2 μM. The method in brief: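 Readout is the intracellular Ca2+ fluorescence change, measured by FLIPR or FDSS, in HEK293 cells stably expressing canine TRPM8. Potency (EC50 or IC50) is fitted from eight concentrations averaged over quadruplicate wells.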
canine TRPM8, sequence (Q1A7N1 1-1104): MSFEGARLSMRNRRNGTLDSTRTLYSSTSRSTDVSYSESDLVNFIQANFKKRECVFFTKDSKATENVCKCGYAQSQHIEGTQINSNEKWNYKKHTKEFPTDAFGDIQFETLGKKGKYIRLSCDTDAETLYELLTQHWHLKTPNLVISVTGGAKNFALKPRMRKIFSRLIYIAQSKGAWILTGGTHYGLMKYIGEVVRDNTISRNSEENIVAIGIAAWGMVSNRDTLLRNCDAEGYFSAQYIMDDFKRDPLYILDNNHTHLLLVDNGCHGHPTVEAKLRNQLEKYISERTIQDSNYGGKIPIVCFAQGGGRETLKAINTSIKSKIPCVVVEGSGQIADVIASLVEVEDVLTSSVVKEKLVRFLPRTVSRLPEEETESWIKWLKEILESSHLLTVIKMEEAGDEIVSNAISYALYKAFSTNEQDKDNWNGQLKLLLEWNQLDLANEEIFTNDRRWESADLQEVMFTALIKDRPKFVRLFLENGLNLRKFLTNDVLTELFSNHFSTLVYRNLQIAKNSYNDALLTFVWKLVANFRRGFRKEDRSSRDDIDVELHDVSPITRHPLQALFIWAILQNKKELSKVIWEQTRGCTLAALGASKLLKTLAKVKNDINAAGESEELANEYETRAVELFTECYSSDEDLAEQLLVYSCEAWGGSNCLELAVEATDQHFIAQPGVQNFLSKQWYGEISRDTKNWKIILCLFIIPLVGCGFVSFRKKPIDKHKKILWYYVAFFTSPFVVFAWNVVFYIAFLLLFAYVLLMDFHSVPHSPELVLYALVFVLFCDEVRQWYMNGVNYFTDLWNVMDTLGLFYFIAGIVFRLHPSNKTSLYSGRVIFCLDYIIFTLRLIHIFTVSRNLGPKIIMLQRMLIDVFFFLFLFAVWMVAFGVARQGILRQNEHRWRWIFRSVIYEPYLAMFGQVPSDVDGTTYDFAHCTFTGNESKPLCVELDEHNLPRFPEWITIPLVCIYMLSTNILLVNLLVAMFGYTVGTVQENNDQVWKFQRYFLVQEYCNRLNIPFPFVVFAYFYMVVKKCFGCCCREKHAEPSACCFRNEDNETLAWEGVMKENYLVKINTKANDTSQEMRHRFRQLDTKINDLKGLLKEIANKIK

The test system of the next test is Male Sprague Dawley rats. As to the kind of experiment: Inhibition of Icilin-Induced "Wet-Dog" Shakes in Rats. Format: in vivo. The following applies: rat, dose 10, p.o. The protocol: Similar shaking or jumping behavior was also evident in mice, rabbits, cats, dogs and monkeys. In humans, icilin produced a sensation of coolness on contact with mucous membranes, cold prickling when 0.1 mg was dropped on the tongue and coldness in the mouth, pharynx and chest lasting 30-60 minutes when 5-10 mg was ingested orally (Wei E T, Seid D A, J Pharm Pharmacol. 1983, 35, 110). The inhibition or reversal of icilin-induced shaking behaviors in rodents provides evidence for the utility of TRPM8 antagonists of the formula (I) in treating or preventing a disease, syndrome, disorder, or condition in a subject in which the disease, syndrome, disorder or condition is affected by the modulation of TRPM8 receptors.
Male Sprague Dawley rats (220-450 g, Charles River Labs, n=6-9/treatment) may be used to evaluate the ability of selected compounds of the formula (I) to block icilin-induced “wet-dog” shakes (WDS). Compounds of the formula (I) may be administered in an appropriate vehicle, such as hydroxypropyl-β-cyclodextrin (HPIβCD), methocellulose, 10% Solutol, or H2O, or the like, by the appropriate route, i.p. or p.o., 30-120 minutes before icilin. Icilin may be administered in PEG-400 or 10% solutol/H2O, at 1.0 or 3.0 mg/kg, i.p. and spontaneous “wet-dog” shakes may be counted 10-20 minutes post-icilin.

For a further test, the target named is TRPM8 (Mus musculus (Mouse), UniProt Q8R4D5). The following applies: TRPM8 transfected cells (Behrendt H J et al. 2004); cited from earlier work.
TRPM8, sequence (Q8R4D5 whole entry): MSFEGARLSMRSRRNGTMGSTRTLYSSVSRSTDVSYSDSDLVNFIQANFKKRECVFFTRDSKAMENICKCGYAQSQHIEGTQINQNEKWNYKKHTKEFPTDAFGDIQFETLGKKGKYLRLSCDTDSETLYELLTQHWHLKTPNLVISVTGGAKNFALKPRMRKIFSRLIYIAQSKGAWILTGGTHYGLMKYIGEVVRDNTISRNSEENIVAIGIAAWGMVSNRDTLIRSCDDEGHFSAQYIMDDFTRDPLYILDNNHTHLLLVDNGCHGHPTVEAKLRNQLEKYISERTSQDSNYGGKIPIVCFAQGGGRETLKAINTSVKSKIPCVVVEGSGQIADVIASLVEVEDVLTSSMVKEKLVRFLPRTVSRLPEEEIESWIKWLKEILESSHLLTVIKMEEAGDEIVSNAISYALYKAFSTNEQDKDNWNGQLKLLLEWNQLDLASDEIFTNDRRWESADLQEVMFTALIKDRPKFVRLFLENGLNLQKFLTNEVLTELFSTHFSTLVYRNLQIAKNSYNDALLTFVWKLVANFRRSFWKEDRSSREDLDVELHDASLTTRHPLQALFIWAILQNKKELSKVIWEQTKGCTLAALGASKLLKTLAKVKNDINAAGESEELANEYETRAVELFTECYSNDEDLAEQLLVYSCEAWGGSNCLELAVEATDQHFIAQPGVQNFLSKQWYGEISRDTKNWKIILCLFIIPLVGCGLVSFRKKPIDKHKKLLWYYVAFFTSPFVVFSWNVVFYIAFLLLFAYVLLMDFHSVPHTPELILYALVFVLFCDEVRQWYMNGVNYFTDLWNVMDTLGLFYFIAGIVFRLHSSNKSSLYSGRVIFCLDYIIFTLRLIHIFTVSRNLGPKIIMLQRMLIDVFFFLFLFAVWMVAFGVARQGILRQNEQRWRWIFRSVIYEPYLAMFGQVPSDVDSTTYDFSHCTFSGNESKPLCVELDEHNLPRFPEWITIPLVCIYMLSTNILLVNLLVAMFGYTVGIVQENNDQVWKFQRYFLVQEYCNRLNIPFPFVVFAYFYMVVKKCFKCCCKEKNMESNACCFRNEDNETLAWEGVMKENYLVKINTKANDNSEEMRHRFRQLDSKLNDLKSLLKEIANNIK
Setting [1] is: vehicle 20% HPβCD, form CO2−Na+.

Turning to `CC(C)c1c(N(Cc2ccc(OC(F)(F)F)cc2)S(=O)(=O)c2ccc(C(=O)[O-])cc2)nc2ccccn12.[Na+]` [Compound 109], at canine TRPM8, the “% Inh (%) @ 0.2 μM” value was 101% and the pIC50 was 8.64. Moreover, the “% Inhibition” value in the test with Male Sprague Dawley rats (setting [1]) is listed as −7.5%.

Consider `Cc1c(N(Cc2ccc(C(F)(F)F)c(F)c2)S(=O)(=O)c2ccccc2)nc2ccc(Cl)cn12` [Compound 38], for which, at canine TRPM8, the inhibition at 0.2 µM came to 100%. Besides, the “% Inhibition” value in the test with Male Sprague Dawley rats (vehicle 20% HPβCD, form Hydrochloride) worked out at 6.5%.

Regarding `O=S(=O)(c1ccccc1)N(Cc1ccc(F)c(C(F)(F)F)c1)c1nc2ccc(Cl)cn2c1Cl` [Compound 8], at canine TRPM8, the “% Inh (%) @ 0.2 μM” value turned out to be 96%; the inhibition at 0.2 µM stood at 97%; the pIC50 was 7.74 and 7.63 and 7.54. In the test with Male Sprague Dawley rats (vehicle 10% Solutol, form Hydrochloride), the “% Inhibition” value was 15.5%.

`O=C1NC(c2cccc([N+](=O)[O-])c2)=CCN1c1ccccc1O` [icilin]: the pEC50 on TRPM8 was 6.70.

Regarding `Cc1c(N(Cc2ccc(OC(F)(F)F)cc2)S(=O)(=O)c2ccc(-n3cccn3)cc2)nc2ccc(Cl)cn12` [Compound 104], at canine TRPM8, the inhibition at 0.2 µM was 93% and the pIC50 was 7.29.

As for `Cc1c(N(Cc2ccc(OC(F)(F)F)cc2)S(=O)(=O)c2ccc(C(=O)[O-])cc2)nc2ccccn12.[Na+]` [Compound 107], at canine TRPM8, the “% Inh (%) @ 0.2 μM” value is listed as 101% and the pIC50 is 8.25. For the same compound, the “% Inhibition” value in the test on Male Sprague Dawley rats (setting [1]) is recorded as −20.6%.

As to `O=S(=O)(c1ccccc1)N(Cc1ccc(C(F)(F)F)c(F)c1)c1nc2ccc(C(F)(F)F)cn2c1Cl` [Compound 60, N-(3-Chloro-6-trifluoromethylimidazo[1,2-a]pyridin-2-yl)-N-(3-fluoro-4-trifluoromethylbenzyl)benzenesulfonamide], the inhibition at 0.2 µM on canine TRPM8 was found to be 55%.

`CCc1c(N(Cc2ccc(OC(F)(F)F)cc2)S(=O)(=O)c2ccccc2)nc2c(C(F)(F)F)cccn12` [Compound 57]: on canine TRPM8, the inhibition at 0.2 µM is 82% and the pIC50 was 7.02.

As to `Cc1c(N(Cc2ccc(OC(F)(F)F)cc2)S(C)(=O)=O)nc2ccc(F)cn12` [Compound 22], on canine TRPM8, the inhibition at 0.2 µM came to 51%.

Turning to `O=S(=O)(c1ccc(N2CCOCC2)nc1)N(Cc1ccccc1)c1nc2ccccn2c1Br` [Compound 83], at canine TRPM8, the inhibition at 0.2 µM was 87% and the pIC50 was 7.13.

As for `CS(=O)(=O)N(Cc1ccc(OC(F)(F)F)cc1)c1nc2ccccn2c1Br` [Compound 4], at canine TRPM8, the negative-log IC50 (pIC50) is 7.78.
